Test results from paper PMC9962452, “Modified Linear Peptides Effectively Silence STAT-3 in Breast Cancer and Ovarian Cancer Cell Lines” (Pharmaceutics, 2023).

Experiments:
scrambled siRNA [1] = assay: SYBR green dye exclusion assay, binding of peptides to siRNA; conditions: scrambled siRNA in normal saline, N/P 0.05 to 40, 30 min room temperature, triplicates, sigmoidal model, value is an N/P ratio
Experimental: As previously reported, the binding affinity of selected peptides to siRNA was investigated using the SYBR green exclusion assay. The MLPs and scrambled siRNA were mixed in normal saline (in triplicates) with different N/P ratios ranging from 0.05 to 40. The mixture was incubated at room temperature for 30 min to ensure complete complexation of peptides and siRNA. After the incubation time, the complexes were transferred to a black 96-well plate. SYBR green dye solution for this assay was made by diluting 1 part of SYBR green dye with 10,000 parts of purified water. Then, 200 µL of the freshly made SYBR green dye dilution was added to each siRNA complex in the black 96-well plate. The plate was covered with aluminum foil before reading in a micro-plate reader that detected the fluorescent signal (485 nm excitation and 527 nm emission). […] The percentage of the siRNA complexed with the peptide was determined using the following equation: % siRNA bond to peptide=100−Fluorescence signal for complexed siRNA /Fluorescence signal for free siRNA×100 % siRNA bound to the peptide was plotted against a range of nitrogen to phosphate (N/P) ratios used in the experiment, and BR50 (the N/P ratio of the complex required to bind 50% of siRNA) was determined using a sigmoidal model. […]

scrambled siRNA [2] = assay: Gel retardation / gel shifting assay, binding of peptides to siRNA; conditions: 1% agarose, ethidium bromide, N/P 0 to 60, 30 min room temperature, bands quantified with Image Lab, value is an N/P ratio
Experimental: In addition to the SYBR green dye exclusion assay described above, the binding affinity of the peptides to siRNA was also determined using the gel retardation/gel shifting assay. Briefly, the MLPs-siRNA complexes were prepared at different N to P ratios ranging from 0 to 60. The N/P ratio of zero represents free siRNA. The tubes containing complexes were incubated at room temperature for 30 min for complete complex formation. After this incubation time, the complexes were mixed with gel-loading dye. Each of the samples was loaded into the wells of 1% agarose gel with (1 μg/mL) ethidium bromide, and […] and 70 Volts were used to run the gel for 20 min. After the run, the gels were visualized under a Bio-Rad imager. The intensity of the bands was quantified by Image Lab software.
To support the data obtained by the SYBR green dye exclusion assay, the binding affinity of the MLPs with siRNA was also determined by the gel retardation assay (Figure 2). For this purpose, the MLPs-siRNA complexes were made in microtubes using purified normal saline at different N to P ratios ranging from 0 to 60. The N to P ratio of 0 represents siRNA only, with no peptide. The solutions in microtubes were allowed to stay at room temperature for 30 min to confer complete complex formation via electrostatic interactions between the MLPs and siRNA. […]

[3] = test system: STAT3 in MDA-MB-231 cells; assay: Western blot of STAT3 protein after STAT3 siRNA delivery, MDA-MB-231; format: cell-based; conditions: n = 3
Experimental: The Western blot assay was used to evaluate the expression of STAT-3 protein in MDA-MB-231 cells using the protocol adopted from our previous study. Briefly, the cells were grown in T25 flasks and treated with MLP-siRNA complexes at N/P ratios of 20 and 40 for 48 h. Following treatment, the cells were harvested as pellets in microtubes and were lysed using RIPA lysis buffer supplanted with a protease inhibitor. The lysate was centrifuged for 15 min at 12,000 rpm at 4 °C to allow the separation of all cell proteins. The supernatant containing all cell proteins was separated in pre-cooled microtubes and the protein was quantified using the standard […].
Following the quantification of protein, the samples representing 15 µg of protein were mixed with gel loading dye and loaded in the wells of pre-formed gels and the electrophoresis was carried out at 200 V for 40 min. After the complete run, the gels were transferred to the Western blotting membrane using the Trans-Blot® machine. After successfully transferring gels onto the membrane, the membrane was blocked in 5% Bovine Serum Albumin in TBS-T buffer consisting of 1X tris-buffered saline and 0.1% Tween 20. […] Finally, the membrane was visualized under the Bio-Rad Imager, and the bands were quantified using Image Lab software. […]

MDA-MB-231 cells = assay: Confocal microscopy of siRNA internalization; format: cell-based; conditions: N/P ratio 40, 24 h, Alexa Fluor 488-labeled siRNA, comparable to Lipofectamine 2000
Experimental: In order to visualize and locate the internalized siRNA, samples for confocal microscopy were prepared using MDA-MB-231 cells, adopting the protocol described previously by our lab. Briefly, sterile 6-well plates were used, and sterile coverslips were placed at the bottom of each well. MDA-MB-231 cells suspended in 2 mL of media were seeded in each well, and the plates were incubated in an incubator at standard growth conditions. After incubation, the cells were exposed to MLPs-fluorescent-labeled siRNA complexes at a N/P ratio of 40 using the same method described above for the FACS assay. The treated cells were again incubated for 24 h to allow for the internalization of siRNA. After overnight incubation, the media was drained from each well, and the cells were rigorously washed with HBSS three times, followed by fixation with 3.7% formaldehyde in the HBSS solution. Following fixation, the cells were treated with Texas Red for 1 h at room temperature to stain the cell membrane. After 1 h of staining with Texas Red, the cells were stained with DAPI overnight at room temperature in a dark environment to stain the nuclei. Following successful nuclei staining, the coverslips containing fixed stained cells were transferred to slides for viewing under a high-definition confocal microscope (Nikon A1 R). […]

BC50 ± SD (N/P ratio required for 50% binding of siRNA) (scrambled siRNA [1]): 0.963 ± 0.34 | BC50 (from quantified gel bands) (scrambled siRNA [2]): 0.9001
Substance: AcNH-K(oleyl)-βA-βA-W4-βA-βA-R4-CONH2 [MLP4, oleic acid conjugated peptide, oleyl chain on the Lys side chain]
Downregulation of STAT3 protein ([3]; N/P ratio 20, 48 h): > 90% | Downregulation of STAT3 protein ([3]; N/P ratio 40, 48 h, GAPDH housekeeping): > 90% | Internalization of siRNA seen by confocal microscopy (MDA-MB-231 cells): significant internalization of siRNA in the cytosol
